Results as given in PubChem BioAssay AID1963851 (Molecular Pharmacology Branch, DTP, NCI, 2024).

System: 188146-221-R-J1-PDC complex spheroid viability
Experiment: Anticancer human tumor 188146-221-R-J1-PDC patient-derived colon adenocarcinoma cell line growth inhibition [POLQ]
Settings: for IC50: curve of first compound; for viability, T/C: stronger effect = lower value
Experimental: Multicellular complex tumor spheroid response to Polymerase (POL) inhibitors (novobiocin, ART-558, RP6685) in combination with a variety of drugs and investigational agents in selected tumor cell lines
The POL inhibitors (novobiocin, ART-558, and RP6685) were evaluated both individually and in combination with standard of care and investigational anticancer small molecules within a complex spheroid model of solid tumors. . Complex spheroids include a stromal component modeled by human endothelial cells (HUVEC) and fibroblasts modeled by human mesenchymal stem cells (MSCs). The concentration ranges selected for each drug and investigational agent were based upon clinically achievable concentrations if the clinical Cmax of the agent was known.
Compounds. The drugs and investigational agents: novobiocin (NSC847541), ART-558 (NSC835418), RP-6685 (NSC848927), peposertib (NSC802822), ceralasertib (NSC780249), elimusertib (NSC800525), camonsertib (NSC841442), AZD-1390 (NSC803789), olaparib (NSC753686), talazoparib (NSC767125), rucaparib (NSC756644), sotorasib (NSC818433), MRTX-1133 (NSC836407), SN-38 (NSC673596), topotecan (NSC609699), epotoside (NSC141540), doxorubicin (NSC123127), gemcitabine (NSC613327), 5-fluorouracil (NSC19893), paclitaxel (NSC125973), vemurafenib (NSC761431), MSA-2 (NSC828583), SN-011 (NSC837082), adavosertib (NSC754352), prexasertib (NSC758257), carboplatin (NSC241240) and oxaliplatin (NSC266046), were obtained from the National Cancer Institute (NCI) Developmental Therapeutics Program Chemical Repository (21). The FDA-approved anticancer drug set is available from the Developmental Therapeutics Program at https://dtp.cancer.gov/organization/dscb/obtaining/. […] The stock solutions were prepared in dimethyl sulfoxide (DMSO, Sigma-Aldrich, St. Louis, MO, cat. D2650), except for the platinum compounds which were prepared in saline (Quality Biological, Gaithersburg, MD, cat. 114-055-101), at 800-fold the tested concentration and stored at -70 degrees C prior to their use. All drugs and investigational agents were tested over a range starting from a high concentration at or near the clinical Cmax and decreasing in half-log increments. If the clinical Cmax for an agent had not been determined, the highest concentration tested was 10 microM, except for SN-38, which was tested at a high concentration of 1 microM.
Cell Culture. All cells were maintained in an incubator at 37 degrees C and 5% CO2 with 95% humidity. The PDC lines were cultured according to standard operating procedures established by the NCI PDMR (https://pdmr.cancer.gov). Table 3 of the manuscript, lists the cell lines along with the number of the three cell types plated to form the mct-spheroids and media for tumor cell growth. After thawing, all PDC lines, except 997537-175-T-J1-PDC and 415267-285-R-J2-PDC, were cultured in Matrigel-coated flasks prepared with a working solution of 1X Ham's F-12 nutrient mix, without supplementation (Thermo Fisher Scientific, cat. 11765054), 100 U/mL penicillin-streptomycin (Thermo Fisher Scientific, cat. 15140122), and 2.5% Matrigel (Corning Inc., Corning, NY, cat. 354248) for the first three passages. The two PDC lines 997537-175-T-J1-PDC and 415267-285-R-J2-PDC were cultured on uncoated flasks. The 857933-349-R-J2-PDC line was cultured in 6C/Colon 1B media containing advanced DMEM/F-12 (Thermo Fisher Scientific, cat. 12634028), 10 mM HEPES (Thermo Fisher Scientific, cat. 15630080), 1X GlutaMAX supplement (Thermo Fisher Scientific, cat. 35050061), 0.1 mg/mL primocin (InvivoGen, San Diego, CA, cat. ant-pm-2), 10% defined fetal bovine serum, heat inactivated (HyClone Laboratories Inc., Logan, UT, cat. SH30070.03HI), 50% L-WRN conditioned media (ATCC, cat. CRL-3276), 1.25 mM N-Acetyl-L-cysteine (Sigma-Aldrich, cat. A9165), 10 mM nicotinamide (Sigma-Aldrich, cat. N0636), 1X B-27 supplement (Thermo Fisher Scientific, cat. 17504044), 1X N-2 supplement (Thermo Fisher Scientific, cat. […]

[1] = second compound 0.0316 µM, first compound 0.00316 µM
[2] = second compound 0.0316 µM, first compound 0.01 µM
[3] = second compound 0.0316 µM, first compound 0.0316 µM
[4] = second compound 0.0316 µM, first compound 0.1 µM
[5] = second compound 0.0316 µM, first compound 0.316 µM
[6] = second compound 0.0316 µM, first compound 1 µM
[7] = second compound 0.1 µM, first compound 0.00316 µM
[8] = second compound 0.1 µM, first compound 0.01 µM
[9] = second compound 0.1 µM, first compound 0.0316 µM
[10] = second compound 0.1 µM, first compound 0.1 µM
[11] = second compound 0.1 µM, first compound 0.316 µM
[12] = second compound 0.1 µM, first compound 1 µM
[13] = second compound 0.316 µM, first compound 0.00316 µM
[14] = second compound 0.316 µM, first compound 0.01 µM
[15] = second compound 0.316 µM, first compound 0.0316 µM
[16] = second compound 0.316 µM, first compound 0.1 µM
[17] = second compound 0.316 µM, first compound 0.316 µM
[18] = second compound 0.316 µM, first compound 1 µM
[19] = second compound 1 µM, first compound 0.00316 µM
[20] = second compound 1 µM, first compound 0.01 µM
[21] = second compound 1 µM, first compound 0.0316 µM
[22] = second compound 1 µM, first compound 0.1 µM
[23] = second compound 1 µM, first compound 0.316 µM
[24] = second compound 1 µM, first compound 1 µM
[25] = second compound 3.16 µM, first compound 0.00316 µM
[26] = second compound 3.16 µM, first compound 0.01 µM
[27] = second compound 3.16 µM, first compound 0.0316 µM
[28] = second compound 3.16 µM, first compound 0.1 µM
[29] = second compound 3.16 µM, first compound 0.316 µM
[30] = second compound 3.16 µM, first compound 1 µM
[31] = second compound 10 µM, first compound 0.00316 µM
[32] = second compound 10 µM, first compound 0.01 µM
[33] = second compound 10 µM, first compound 0.0316 µM
[34] = second compound 10 µM, first compound 0.1 µM
[35] = second compound 10 µM, first compound 0.316 µM
[36] = second compound 10 µM, first compound 1 µM
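Note: spheroids exposed to compounds for seven days.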
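Throughout, for viability, T/C: 100% = DMSO vehicle control viability.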

For `CCc1c2c(nc3ccc(O)cc13)-c1cc3c(c(=O)n1C2)COC(=O)[C@]3(O)CC` + Nc1ccc(C#CCN(C(=O)Cc2ncc(C(F)(F)F)cc2C(F)(F)F)c2ccc(F)cc2)nn1, the IC50 (second compound 0.0316 µM) was 19.8 nM, the IC50 (second compound 0.1 µM) was 25.1 nM and the IC50 (second compound 0.316 µM) was 20.7 nM. For the same compound, the IC50 (second compound 1 µM) was 23.2 nM, the IC50 (second compound 3.16 µM) was 26.5 nM and the IC50 (second compound 10 µM) was 23.2 nM. The viability, T/C [1] was 94.7%, the viability, T/C [2] was 69.8% and the viability, T/C [3] was 35%. For the same compound, the viability, T/C [4] was 20.9%, the viability, T/C [5] was 12.5% and the viability, T/C [6] was 7.87%. The viability, T/C [7] was 101%, the viability, T/C [8] was 81.1% and the viability, T/C [9] was 42.1%. It also gave a viability, T/C [10] of 18.5%, a viability, T/C [11] of 13.3% and a viability, T/C [12] of 10.1%. It also gave a viability, T/C [13] of 100%, a viability, T/C [14] of 73.1% and a viability, T/C [15] of 35.9%. It also gave a viability, T/C [16] of 18.3%, a viability, T/C [17] of 12.4% and a viability, T/C [18] of 8.23%. It also gave a viability, T/C [19] of 88.9%, a viability, T/C [20] of 77.8% and a viability, T/C [21] of 37.7%. The viability, T/C [22] was 22.3%, the viability, T/C [23] was 13.7% and the viability, T/C [24] was 8.08%. It also gave a viability, T/C [25] of 90.5%, a viability, T/C [26] of 89.7% and a viability, T/C [27] of 42.2%. It also gave a viability, T/C [28] of 19.3%, a viability, T/C [29] of 12.6% and a viability, T/C [30] of 8.98%. The viability, T/C [31] was 98.6%, the viability, T/C [32] was 75.3% and the viability, T/C [33] was 38.9%. It also gave a viability, T/C [34] of 22.6%, a viability, T/C [35] of 15.7% and a viability, T/C [36] of 8.14%.

`COc1cccc(OCCCN)c1-c1cc(Nc2cnc(C#N)cn2)n[nH]1` + Nc1ccc(C#CCN(C(=O)Cc2ncc(C(F)(F)F)cc2C(F)(F)F)c2ccc(F)cc2)nn1 was tested, and the IC50 (second compound 0.0316 µM) was 64.2 nM, the IC50 (second compound 0.1 µM) was 57.3 nM and the IC50 (second compound 0.316 µM) was 47.7 nM. The IC50 (second compound 1 µM) was 29.9 nM, the IC50 (second compound 3.16 µM) was 37.5 nM and the IC50 (second compound 10 µM) was 28.6 nM. For the same compound, the viability, T/C [1] was 94.9%, the viability, T/C [2] was 96% and the viability, T/C [3] was 77.4%. The viability, T/C [4] was 32.7%, the viability, T/C [5] was 16.2% and the viability, T/C [6] was 13.6%. The viability, T/C [7] was 104%, the viability, T/C [8] was 109% and the viability, T/C [9] was 66.6%. It also gave a viability, T/C [10] of 34.3%, a viability, T/C [11] of 17.3% and a viability, T/C [12] of 14%. For the same compound, the viability, T/C [13] was 106%, the viability, T/C [14] was 99.1% and the viability, T/C [15] was 59.1%. It also gave a viability, T/C [16] of 30.9%, a viability, T/C [17] of 16.9% and a viability, T/C [18] of 12.2%. For the same compound, the viability, T/C [19] was 108%, the viability, T/C [20] was 111% and the viability, T/C [21] was 46.8%. The viability, T/C [22] was 28.2%, the viability, T/C [23] was 15.6% and the viability, T/C [24] was 14%. The viability, T/C [25] was 91.5%, the viability, T/C [26] was 85.1% and the viability, T/C [27] was 54.3%. For the same compound, the viability, T/C [28] was 23.7%, the viability, T/C [29] was 15.6% and the viability, T/C [30] was 13.7%. The viability, T/C [31] was 119%, the viability, T/C [32] was 87.8% and the viability, T/C [33] was 47.6%. It also gave a viability, T/C [34] of 21.7%, a viability, T/C [35] of 17% and a viability, T/C [36] of 15.4%.
